From US10987382B2, “Solanum dubium seeds and honey (extracted from bee hives in Acacia tree populated area) combination for treatment of asthma and bronchial asthma” (priority 2015, dated 2021)

System: Carrageenan induced paw oedema in Wister Rats
Assay: Carrageenan induced paw oedema (anti-inflammatory activity)
Format: in vivo, rat
Conditions: for % reduction in edema volume: 40 mg/kg i.p.
Experimental: And anti-inflammatory study of aqueous crude extract of S. dubuim seeds, honey and S. dubuim seeds and honey (combination) on Wister Rats (42 rats), done to evaluate the anti inflammatory effects in animals using the method of Carrageenan induced paw oedema. (Nayak and Patel, 2010).
The first group serve as control and receive normal saline (1 ml/kg, orally), the second group served as standard and were administrated standard drug diclofenac sodium (100 mg/kg i.p.). The remaining groups were treated with, the third group received honey (2 ml/kg, orally), the fourth group are treated with the S. dubium seeds (2 ml/kg orally), the fifth group are treated with combination (2 ml/kg orally), the sixth group are treated with combination (4 ml/kg orally) and group seventh treated with standard drug hydrocortisone (40 mg/kg i.p.). A mark was made on both the hind paws just below the tibio-tarsal junction. After 30 min of the above treatment an inflammatory oedema was induced in the left hind paw by inject 0.1 ml solution of Carrageenan, in the planter tissue of all the animals. The paw volume was measured at first hour and followed every hour till the fifths hour after administration of carrageenan of each group. The difference between the initial and subsequence reading gave the actual edema volume. […] 100 mg/kg.
Finally the results of the anti-inflammatory activity of the fractions of methanolic extract (144) Wister Rats. […] Also the alcoholic extract of all fractions decreased rat paw edema at the end of 5th hour. The paw volume was measured initially at 0, 1, 2, 3, 4 and 5 h after Carrageenan injection using digital paw edema meter. Percent inhibition of inflammation was calculated using the formula: % Inhibition=100(1−vt/vc). Where (vc) represents edema volume in control and (vt) edema volume in group treated with sample.

Structure (SMILES) | inhibition at 100 mg/kg (Rattus norvegicus, ip, 100 mg/kg i.p., after 4 hour, read-out: % inhibition of paw edema) | % reduction in edema volume (after 4 hour) | % reduction in edema volume (after 5 hour)
O=C(O)Cc1ccccc1Nc1c(Cl)cccc1Cl [diclofenac sodium] | 74.3% |  | 
C[C@]12CCC(=O)C=C1CC[C@@H]1[C@@H]2[C@@H](O)C[C@@]2(C)[C@H]1CC[C@]2(O)C(=O)CO [hydrocortisone] |  | 70.39% | 76.35%
